Results from PMC7044277 (Nature Communications, 2020).
Where “and” joins values, the source holds several entries; their conditions need not be identical. Identical values can stand only once.

Experiments:
Format in all cases: cell-based
Set-up in all cases: GPCRome screening signal at PTGIR / GPCRome screening signal at PTH1R / GPCRome screening signal at PTH2R / GPCRome screening signal at QRFP / GPCRome screening signal at RXFP2 / GPCRome screening signal at RXFP3 / GPCRome screening signal at RXFP4 / GPCRome screening signal at S1PR2 / GPCRome screening signal at S1PR3 / GPCRome screening signal at S1PR4 / GPCRome screening signal at S1PR5 / GPCRome screening signal at SCTR / GPCRome screening signal at SSTR2 / GPCRome screening signal at SSSTR / GPCRome screening signal at SSTR4 / GPCRome screening signal at SSTR5 / GPCRome screening signal at SUCNR1 / GPCRome screening signal at TA1 / GPCRome screening signal at TAAR2 / GPCRome screening signal at TAAR5 / GPCRome screening signal at TAAR6 / GPCRome screening signal at TAAR8 / GPCRome screening signal at TACR1 / GPCRome screening signal at TACR2 / GPCRome screening signal at TACR3 / GPCRome screening signal at TBXA2R / GPCRome screening signal at TSHR / GPCRome screening signal at UTS2R / GPCRome screening signal at VIPR2 / GPCRome screening signal at GPR68 no V2 Tail / GPCRome screening signal at GRM2 / GPCRome screening signal at GRM3: reference not given here
[1] = target: 320 non-olfactory GPCRs (Homo sapiens, UniProt P21453); settings: receptor S1PR1
320 non-olfactory GPCRs (Homo sapiens, UniProt P21453), sequence (P21453 whole entry): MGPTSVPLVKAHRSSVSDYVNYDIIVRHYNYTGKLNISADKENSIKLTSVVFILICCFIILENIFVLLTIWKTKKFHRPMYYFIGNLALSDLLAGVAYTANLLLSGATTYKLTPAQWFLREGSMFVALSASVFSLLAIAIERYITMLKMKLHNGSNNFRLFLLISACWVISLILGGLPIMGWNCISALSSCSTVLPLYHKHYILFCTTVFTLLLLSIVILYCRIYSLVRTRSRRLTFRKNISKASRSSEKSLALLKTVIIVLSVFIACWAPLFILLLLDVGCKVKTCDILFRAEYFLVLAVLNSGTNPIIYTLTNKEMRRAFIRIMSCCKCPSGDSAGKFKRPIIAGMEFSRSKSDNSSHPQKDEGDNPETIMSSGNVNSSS

[2] = target: T1, 320 non-olfactory GPCRs (Homo sapiens, UniProt Q96RJ0); settings: receptor TA1
T1 construct: expressed in transfected cells; host or cells: HTLA cells
T1 sequence (Q96RJ0 whole entry): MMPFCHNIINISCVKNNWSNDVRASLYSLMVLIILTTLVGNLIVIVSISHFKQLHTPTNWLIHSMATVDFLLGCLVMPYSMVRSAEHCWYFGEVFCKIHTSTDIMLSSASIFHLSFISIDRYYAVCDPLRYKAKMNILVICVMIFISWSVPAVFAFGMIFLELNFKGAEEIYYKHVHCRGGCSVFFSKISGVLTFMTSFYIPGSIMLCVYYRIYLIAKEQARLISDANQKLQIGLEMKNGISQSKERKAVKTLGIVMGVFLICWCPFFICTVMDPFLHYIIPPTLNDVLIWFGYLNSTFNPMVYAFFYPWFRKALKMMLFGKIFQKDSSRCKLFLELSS

[3] = target: T2, 320 non-olfactory GPCRs (Homo sapiens, UniProt Q9BXA5); settings: receptor SUCNR1
T2 construct: expressed in transfected cells; host or cells: HTLA cells
T2 sequence (Q9BXA5 whole entry): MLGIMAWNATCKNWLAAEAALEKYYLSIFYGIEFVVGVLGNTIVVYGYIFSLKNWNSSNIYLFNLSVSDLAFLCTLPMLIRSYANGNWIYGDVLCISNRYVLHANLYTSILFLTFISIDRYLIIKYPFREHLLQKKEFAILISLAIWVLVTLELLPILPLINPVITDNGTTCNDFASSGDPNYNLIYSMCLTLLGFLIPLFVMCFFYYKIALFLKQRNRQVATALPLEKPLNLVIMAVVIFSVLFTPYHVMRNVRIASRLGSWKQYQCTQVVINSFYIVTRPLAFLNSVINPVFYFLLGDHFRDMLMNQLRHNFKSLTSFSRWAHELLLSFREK

[4] = target: T3, 320 non-olfactory GPCRs (Homo sapiens, UniProt Q9H1C0); settings: receptor GPR92
T3 construct: expressed in transfected cells; host or cells: HTLA cells
T3 sequence (Q9H1C0 whole entry): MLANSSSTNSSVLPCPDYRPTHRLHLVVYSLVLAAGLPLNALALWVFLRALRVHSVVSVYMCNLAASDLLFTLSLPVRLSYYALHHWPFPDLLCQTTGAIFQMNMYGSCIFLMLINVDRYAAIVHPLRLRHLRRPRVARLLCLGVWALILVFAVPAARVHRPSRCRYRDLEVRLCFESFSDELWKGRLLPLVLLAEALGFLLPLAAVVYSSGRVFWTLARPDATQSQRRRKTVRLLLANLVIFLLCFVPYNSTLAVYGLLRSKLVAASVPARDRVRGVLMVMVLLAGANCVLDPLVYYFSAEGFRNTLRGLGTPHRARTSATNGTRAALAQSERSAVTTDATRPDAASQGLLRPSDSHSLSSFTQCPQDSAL

[5] = Fig_5f, single replicate values
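Throughout, for GPCRome agonism screen response: fold over basal response of each receptor without drug.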

GPCRome screening signal at S1PR1 [1, 5]	GPCRome screening signal at TA1 [2, 5]	GPCRome screening signal at SUCNR1 [3, 5]	GPCRome screening signal at GPR92 [4, 5]	SMILES	GPCRome agonism screen response ([1]; replicate values, Fig_4g)	GPCRome agonism screen response ([2]; replicate values, Fig_4g)	GPCRome agonism screen response ([3]; replicate values, Fig_4g)	GPCRome agonism screen response ([4]; replicate values, Fig_4g)
0.7005 and 1.113 and 2.609 and 1.363	0.8481 and 0.8735 and 0.8675 and 0.7534	2.588 and 2.79 and 1.592 and 0.9771	0.9709 and 0.5547 and 0.5858 and 0.9422	CCOc1ccccc1CCC(C)NCC1(O)CCCCC1.Cl (racemic) [Fig_5f]	–	–	–	–
–	–	–	–	CCOc1cccc2cc(C(C)NCC3(O)CCCCC3)oc12 (centres unmarked) [O4LE6]	2.353 and 1.219 and 1.439 and 0.7423	0.6778 and 0.9948 and 0.7841 and 0.8752	2.7145 and 1.744 and 1.03 and 1.189	1.1613 and 0.7262 and 0.6248 and 2.678
